According to ChEMBL document CHEMBL6178015, “Discovery of a Novel Serine-Targeting Covalent Inhibitor against HCES2A for Treating Drug-induced Diarrhea and Ulcerative Colitis” (J Med Chem, 2025):
The source made the active and inactive calls. No cut-off for these calls is given here.

Legend:
Mus musculus [1] = assay: Reversal of irinotecan-induced gut toxicity in C57BL/6J mouse bearing MC38 cells assessed as increase in ZO-1 expression level in colon tissues at 30 to 60 mg/kg,po administered daily and measured after 14 days by immunohistochemical analysis; assay type: functional, organism-based; settings: dose 30-60 mg/kg, time 14.0 day
[2] = Irreversible inhibition of human CES2A using fluorescein diacetate as substrate preincubated for 3 mins followed by substrate addition by fluorescence microplate reader
Mus musculus [3] = assay: Antiinflammatory activity against DSS-induced ulcerative colitis mouse model assessed as inhibition of colon contracture at 30 to 60 mg/kg,IG administered once daily 7 days; assay type: functional, organism-based; settings: dose 30-60 mg/kg, time 7.0 day
hERG (KCNH2) = hERG (KCNH2) (Homo sapiens, UniProt Q12809); assay: Inhibition of hERG expressed in HEK293 cells at 10 uM relative to control; assay type: toxicity, cell-based; settings: HEK293 cells that express hERG
Sequence of hERG (KCNH2) (Q12809 whole entry): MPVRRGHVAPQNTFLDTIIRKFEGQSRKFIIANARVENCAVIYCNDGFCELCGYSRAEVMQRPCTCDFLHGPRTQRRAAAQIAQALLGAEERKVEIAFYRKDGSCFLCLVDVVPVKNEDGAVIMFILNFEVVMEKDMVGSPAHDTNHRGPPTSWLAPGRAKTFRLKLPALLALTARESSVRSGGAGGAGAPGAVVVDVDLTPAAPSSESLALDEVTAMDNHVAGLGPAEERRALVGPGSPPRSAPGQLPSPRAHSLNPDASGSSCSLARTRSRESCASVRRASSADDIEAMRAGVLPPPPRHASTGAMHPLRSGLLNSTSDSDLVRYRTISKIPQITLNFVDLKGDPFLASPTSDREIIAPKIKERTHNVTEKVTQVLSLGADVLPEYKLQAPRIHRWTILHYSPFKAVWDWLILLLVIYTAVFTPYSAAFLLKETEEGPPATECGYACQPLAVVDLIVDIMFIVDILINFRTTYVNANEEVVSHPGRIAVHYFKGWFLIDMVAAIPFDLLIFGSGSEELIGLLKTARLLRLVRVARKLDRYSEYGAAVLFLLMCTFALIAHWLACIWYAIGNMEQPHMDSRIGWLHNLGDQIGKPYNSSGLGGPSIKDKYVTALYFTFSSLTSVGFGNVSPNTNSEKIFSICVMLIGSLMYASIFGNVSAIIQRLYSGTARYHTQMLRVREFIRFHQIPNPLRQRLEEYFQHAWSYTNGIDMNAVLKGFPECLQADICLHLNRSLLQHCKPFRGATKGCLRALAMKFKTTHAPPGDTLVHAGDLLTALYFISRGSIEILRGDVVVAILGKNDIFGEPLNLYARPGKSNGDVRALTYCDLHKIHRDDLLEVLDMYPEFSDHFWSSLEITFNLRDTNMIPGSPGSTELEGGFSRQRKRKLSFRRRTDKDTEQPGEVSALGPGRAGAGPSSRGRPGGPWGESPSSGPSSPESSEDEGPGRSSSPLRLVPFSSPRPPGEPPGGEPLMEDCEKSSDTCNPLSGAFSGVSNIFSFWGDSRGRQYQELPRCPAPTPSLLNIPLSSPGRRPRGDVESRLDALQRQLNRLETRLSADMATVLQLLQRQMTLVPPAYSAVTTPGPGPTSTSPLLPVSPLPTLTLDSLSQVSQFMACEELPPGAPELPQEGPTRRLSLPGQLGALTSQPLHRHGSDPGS

Homo sapiens [4] = species: Homo sapiens; assay: Irreversible inhibition of human CES2A assessed as inactivation constant incubated for 5 to 30 mins; settings: time 5-30 min
Homo sapiens [5] = species: Homo sapiens; assay: Potency index, ratio of LC-20W IC50 to test compound IC50 for inhibition of human CES2A using fluorescein diacetate as substrate
[6] = Inhibition of human CES2A in HepG2 cells incubated for 1 hrs by NCEN and Hoechst 33342 staining based assay; assay type: cell-based
Mus musculus [7] = assay: Antiinflammatory activity against DSS-induced ulcerative colitis mouse model assessed as restoration of TNF-alpha levels in colon tissues at 30 to 60 mg/kg,IG administered once daily 7 days by ELISA; assay type: functional, organism-based; settings: dose 30-60 mg/kg, time 7.0 day
Mus musculus [8] = assay: Antiinflammatory activity against DSS-induced ulcerative colitis mouse model assessed as restoration of IL-1beta levels in colon tissues at 30 to 60 mg/kg,IG administered once daily 7 days by ELISA; assay type: functional, organism-based; settings: dose 30-60 mg/kg, time 7.0 day
Mus musculus [9] = assay: Reversal of irinotecan-induced gut toxicity in C57BL/6J mouse bearing MC38 cells assessed as amelioration of goblet cell apoptosis at 30 to 60 mg/kg,po administered daily and measured after 14 days by H and E staining based analysis; assay type: functional, organism-based; settings: dose 30-60 mg/kg, time 14.0 day
Mus musculus [10] = assay: Reversal of irinotecan-induced gut toxicity in C57BL/6J mouse bearing MC38 cells assessed as restoration of TNF-alpha levels in colon tissues at 30 to 60 mg/kg,po administered daily and measured after 14 days by ELISA; assay type: functional, organism-based; settings: dose 30-60 mg/kg, time 14.0 day
Mus musculus [11] = assay: Reversal of irinotecan-induced gut toxicity in C57BL/6J mouse bearing MC38 cells assessed as effect on tumor weight at 30 to 60 mg/kg,po administered daily and measured after 14 days; assay type: functional, organism-based; settings: dose 30-60 mg/kg, time 14.0 day
Mus musculus [12] = assay: Reversal of irinotecan-induced gut toxicity in C57BL/6J mouse bearing MC38 cells assessed as effect on tumor volume at 30 to 60 mg/kg,po administered daily and measured after 14 days; assay type: functional, organism-based; settings: dose 30-60 mg/kg, time 14.0 day
Mus musculus [13] = assay: Reversal of irinotecan-induced gut toxicity in C57BL/6J mouse bearing MC38 cells assessed as reduction in diarrhea at 30 to 60 mg/kg,po administered daily and measured after 14 days; assay type: functional, organism-based; settings: dose 30-60 mg/kg, time 14.0 day
Mus musculus [14] = assay: Antiinflammatory activity against DSS-induced ulcerative colitis mouse model assessed as restoration of IL-6 levels in colon tissues at 30 to 60 mg/kg,IG administered once daily 7 days by ELISA; assay type: functional, organism-based; settings: dose 30-60 mg/kg, time 7.0 day
Mus musculus [15] = assay: Reversal of irinotecan-induced gut toxicity in C57BL/6J mouse bearing MC38 cells assessed as weight recovery at 30 to 60 mg/kg,po administered daily and measured after 14 days; assay type: functional, organism-based; settings: dose 30-60 mg/kg, time 14.0 day
[16] = Irreversible inhibition of human CES2A assessed as inhibition constant incubated for 5 to 30 mins
Mus musculus [17] = assay: Antiinflammatory activity against DSS-induced ulcerative colitis mouse model assessed as restoration of colon histology at 700 mg/kg,IG administered once daily 7 days by AB-PAS staining based analysis; assay type: functional, organism-based; settings: time 7.0 day
Mus musculus [18] = assay: Antiinflammatory activity against DSS-induced ulcerative colitis mouse model assessed as preservation of colonic mucosal structure at 30 to 60 mg/kg,IG administered once daily 7 days by H and E staining based analysis; assay type: functional, organism-based; settings: dose 30-60 mg/kg, time 7.0 day
[19] = Inhibition of human CES1A using NLMe as substrate preincubated for 3 mins followed by substrate addition and measured after 20 mins by chemiluminescence analysis
[20] = Inhibition of human CES2A using fluorescein diacetate as substrate preincubated for 3 mins followed by substrate addition and measured after 30 mins by fluorescence microplate reader
Homo sapiens [21] = species: Homo sapiens; assay: Irreversible inhibition of human CES2A at 0.02 nM preincubated for 33 mins and measured after 8 hrs dialysis by fluorescence microplate reader; settings: time 513.0 min
Mus musculus [22] = assay: Antiinflammatory activity against DSS-induced ulcerative colitis mouse model assessed as decrease in DAI score at 30 to 60 mg/kg,IG administered once daily 7 days; assay type: functional, organism-based; settings: dose 30-60 mg/kg, time 7.0 day
Mus musculus [23] = assay: Antiinflammatory activity against DSS-induced ulcerative colitis mouse model assessed as alleviation in body weight loss at 30 to 60 mg/kg,IG administered once daily 7 days; assay type: functional, organism-based; settings: dose 30-60 mg/kg, time 7.0 day
Mus musculus [24] = assay: Antiinflammatory activity against DSS-induced ulcerative colitis mouse model assessed as reduction in crypt destruction in colon tissues at 30 to 60 mg/kg,IG administered once daily 7 days by H and E staining based analysis; assay type: functional, organism-based; settings: dose 30-60 mg/kg, time 7.0 day
Mus musculus [25] = assay: Antiinflammatory activity against DSS-induced ulcerative colitis mouse model assessed as upregulation of ZO-1 expression in colon tissues at 700 mg/kg,IG administered once daily 7 days by immunohistochemical analysis; assay type: functional, organism-based; settings: time 7.0 day
Mus musculus [26] = assay: Reversal of irinotecan-induced gut toxicity in C57BL/6J mouse bearing MC38 cells assessed as reduction in colon shortening at 30 to 60 mg/kg,po administered daily and measured after 14 days; assay type: functional, organism-based; settings: dose 30-60 mg/kg, time 14.0 day
Mus musculus [27] = assay: Antiinflammatory activity against DSS-induced ulcerative colitis mouse model assessed as reduction in inflammatory infiltration in lamina propria at 30 to 60 mg/kg,IG administered once daily 7 days by H and E staining based analysis; assay type: functional, organism-based; settings: dose 30-60 mg/kg, time 7.0 day
[28] = biological target: Voltage-gated inwardly rectifying potassium channel KCNH2 (Homo sapiens, UniProt Q12809); assay: Inhibition of hERG expressed in HEK293 cells; assay type: toxicity, cell-based
Sequence of Voltage-gated inwardly rectifying potassium channel KCNH2 (Q12809 whole entry): as above

Mus musculus [29] = assay: Reversal of irinotecan-induced gut toxicity in C57BL/6J mouse bearing MC38 cells assessed as increase in claudin-1 expression level in colon tissues at 30 to 60 mg/kg,po administered daily and measured after 14 days by immunohistochemical analysis; assay type: functional, organism-based; settings: dose 30-60 mg/kg, time 14.0 day
[30] = Irreversible inhibition of human CES2A using fluorescein diacetate as substrate preincubated for 33 mins followed by substrate addition by fluorescence microplate reader
Mus musculus [31] = assay: Reversal of irinotecan-induced gut toxicity in C57BL/6J mouse bearing MC38 cells assessed as change in tumor size at 30 to 60 mg/kg,po administered daily and measured after 14 days; assay type: functional, organism-based; settings: dose 30-60 mg/kg, time 14.0 day
HepG2 = assay: Inhibition of human CES2A in HepG2 cells assessed as decrease in green fluorescence at 5 to 60 nM incubated for 1 hrs by NCEN and Hoechst 33342 staining based assay; assay type: cell-based; settings: dose 5-60 nM
Mus musculus [32] = assay: Reversal of irinotecan-induced gut toxicity in C57BL/6J mouse bearing MC38 cells assessed as restoration of IL-6 levels in colon tissues at 30 to 60 mg/kg,po administered daily and measured after 14 days by ELISA; assay type: functional, organism-based; settings: dose 30-60 mg/kg, time 14.0 day
Homo sapiens [33] = species: Homo sapiens; assay: Selectivity index, ratio of IC50 for inhibition of human CES1A to IC50 for inhibition of human CES2A
Mus musculus [34] = assay: Antiinflammatory activity against DSS-induced ulcerative colitis mouse model assessed as upregulation of claudin-1 expression in colon tissues at 700 mg/kg,IG administered once daily 7 days by immunohistochemical analysis; assay type: functional, organism-based; settings: time 7.0 day
Mus musculus [35] = assay: Reversal of irinotecan-induced gut toxicity in C57BL/6J mouse bearing MC38 cells assessed as amelioration of inflammatory cell infiltration loss at 30 to 60 mg/kg,po administered daily and measured after 14 days by H and E staining based analysis; assay type: functional, organism-based; settings: dose 30-60 mg/kg, time 14.0 day
Mus musculus [36] = assay: Antiinflammatory activity against DSS-induced ulcerative colitis mouse model assessed as upregulation of occludin expression in colon tissues at 700 mg/kg,IG administered once daily 7 days by immunohistochemical analysis; assay type: functional, organism-based; settings: time 7.0 day
Mus musculus [37] = assay: Reversal of irinotecan-induced gut toxicity in C57BL/6J mouse bearing MC38 cells assessed as amelioration of epithelial crypts loss at 30 to 60 mg/kg,po administered daily and measured after 14 days by H and E staining based analysis; assay type: functional, organism-based; settings: dose 30-60 mg/kg, time 14.0 day
Mus musculus [38] = assay: Reversal of irinotecan-induced gut toxicity in C57BL/6J mouse bearing MC38 cells assessed as restoration of IL-1beta levels in colon tissues at 30 to 60 mg/kg,po administered daily and measured after 14 days by ELISA; assay type: functional, organism-based; settings: dose 30-60 mg/kg, time 14.0 day

CCCCCCCCC(=O)c1cccc2oc(-c3cc(OC)ccc3OC(=O)N3CCCC3)cc12
Activity (Mus musculus [1]): Active
IC50 [2]: 0.12 nM
Activity (Mus musculus [3]): Active
inhibition at 10 µM (hERG (KCNH2)): 14.6%
Kinact (Homo sapiens [4]): 0.052 min⁻¹
Ratio IC50 (Homo sapiens [5]): 13
IC50 [6]: 19.6 nM
Activity (Mus musculus [7]): Active
Activity (Mus musculus [8]): Active
Activity (Mus musculus [9]): Active
Activity (Mus musculus [10]): Active
Activity (Mus musculus [11]): inactive
Activity (Mus musculus [12]): Active
Activity (Mus musculus [13]): Active
Activity (Mus musculus [14]): Active
Activity (Mus musculus [15]): Active
Ki [16]: 0.43 nM
Activity (Mus musculus [17]): Active
Activity (Mus musculus [18]): Active
IC50 [19]: 6.95 nM
IC50 [20]: 0.118 nM
inhibition (Homo sapiens [21]): Active
Activity (Mus musculus [22]): Active
Activity (Mus musculus [23]): Active
Activity (Mus musculus [24]): Active
Activity (Mus musculus [25]): Active
Activity (Mus musculus [26]): Active
Activity (Mus musculus [27]): Active
IC50 [28]: > 10000 nM
Activity (Mus musculus [29]): Active
IC50 [30]: 0.028 nM
Activity (Mus musculus [31]): inactive
inhibition (HepG2): Active
Activity (Mus musculus [32]): Active
Ratio IC50 (Homo sapiens [33]): 59
Activity (Mus musculus [34]): Active
Activity (Mus musculus [35]): Active
Activity (Mus musculus [36]): Active
Activity (Mus musculus [37]): Active
Activity (Mus musculus [38]): Active
